Experimental findings from patent US20190018003A1, “TUMOR DISCRIMINATION METHOD, DIAGNOSTIC AGENT FOR TUMOR, AND SENSITIZER FOR TUMOR DIAGNOSIS” (TOTO LTD., priority 2017, published 2019) are described below.

This experiment has as its system T24 urinary bladder cancer cells. The experiment can be described thus: Fluorescence enhancement in T24 cells by separate administration of fluorescent dye (ALA) and particles, inverted fluorescence microscope. In kind it is cell-based, human. As for the experimental part:
T24 cells (T24, JCRB0711) were prepared. This cell line was subcultured in an MEM medium (MEM, GlutaMAX™ supplement (Thermo Fisher Scientific), 10 v/v % FBS (Thermo Fischer Scientific)). The cultured cells which reached a logarithmic growth phase 3 days or 4 days later were peeled off with Trypsin/EDTA (Thermo Fisher Scientific) and, after the reaction was terminated in an MEM medium, centrifuged. The cell pellet obtained was suspended in an MEM medium. The cell suspension was subjected to measurement of cell density, inoculated onto a 6-well plate at a density of 3.6×10^4 cells/2 ml/well, and cultured for 3 days.
An aqueous ALA solution (50 mmol/l) was mixed into an MEM medium (MEM, GlutaMAX™ supplement (Thermo Fisher Scientific)) to form a 2 mmol/l ALA solution. Further, an aqueous solution of light scattering particles (2) (ii) was mixed into an MEM medium to form a 0.001 w/v % light scattering particle solution.
Evaluation was performed as follows. The medium of the T24 cells on a 6-well plate, obtained in Example 3, was removed by an aspirator, and thereto was added 2 ml of PBS (−) (Thermo Fisher Scientific). Once again, PBS (−) was removed by an aspirator, thereto was added 2 ml of an ALA solution, and the system was cultured for 2 hours. Then, the ALA solution on the 6-well plate was removed by an aspirator, thereto was added 2 ml of a light scattering particle solution, and the system was cultured for 2 hours. Further, the particle solution on the 6-well plate was removed by an aspirator, the residue was washed with HBSS (−) (Thermo Fisher Scientific), HBSS (−) was removed gain by an aspirator, to the residue was added 2 ml of HBSS (−), and the solution was used for observation and detection of fluorescence.
Observation and detection of fluorescence was performed by using an inverted fluorescence microscope (ECLIPSE Ti-E, Nikon). By using a halogen light source lamp and a 450 nm dichroic mirror, excitation light was irradiated through a 410 nm band pass filter of a 25 nm half-band width, and fluorescence was passed through a 600 nm long-pass filter. There were used an eyepiece of 10 times magnification and an objective lens of 20 times magnification and numerical aperture of 0.75. The irradiation aperture, exposure time, and gain were set to ND=8, 400 ms, and 14.0×, respectively. Fluorescent images were acquired by a cooling CCD color camera (DS-Fi3, Nikon) as digital images. By using an image analysis device IS-Elements AR ver.4.60 (Nikon), fluorescence was detected by subtracting luminance corresponding to dark noise from the image acquired, thereafter obtaining average luminance of all pixels where fluorescence is acquired, and calculating a fluorescence intensity. Also, the image acquired was observed visually.
Relative fluorescence intensity was calculated by using the fluorescence intensities acquired above according to the following formula:
[relative fluorescence intensity]=[fluorescence intensity under each condition]/[fluorescence intensity immediately after irradiation of observation light in the case of administration of fluorescent dye only]. […]
An aqueous ALA solution (50 mmol/l) was mixed into an MEM medium (MEM, GlutaMAX™ supplement (Thermo Fisher Scientific)) to form a 2 mmol/l ALA solution. An aqueous solution of silica particles having a particle size of 100 nm (sicastar, Silica Microsphere, Plain, 25 mg/ml, produced by Polyscience) was mixed into the MEM medium to form a 0.01 w/v % silica particle solution.
Evaluation was performed by removing the medium of the T24 cells on a 6-well plate, obtained in Example 3, under conditions where, in Example 4, PBS (−) and HBSS (−) were respectively changed to MEM medium and MEM medium (no glutamine, no phenol red (Thermo Fisher Scientific)), and the solution was used for detection of fluorescence. […]

Regarding `NCC(=O)CCC(=O)O` [fluorescent dye, 5-aminolevulinic acid], the Relative fluorescence intensity is given as 0.4 (Example 4, T24, ALA 2 mmol/l 2 h, then particles 0.001 w/v % 2 h, 50 seconds after observation light irradiation); 0.1 (Example 4, T24, ALA 2 mmol/l 2 h, then particles 0.001 w/v % 2 h, 150 seconds after observation light irradiation); 1.0 (Example 4, T24, ALA 2 mmol/l 2 h, then particles 0.001 w/v % 2 h, immediately after observation light irradiation, relative to dye only immediately after irradiation); 1.0 (Example 7, T24, ALA 2 mmol/l, administration of fluorescent dye only); 1.0 (Example 10, T24 cell line, ALA 2 mmol/l, particles 0.001 w/v %); 1.0 (Example 12, T24, ALA 2 mmol/l, silica particles 0.01 w/v %, immediately after observation light irradiation). The Relative fluorescence intensity worked out at 1.0 (Example 13, T24, ALA 2 mmol/l, polystyrene particles 0.01 w/v %, immediately after observation light irradiation); 1.0 (Example 14, T24, ALA 2 mmol/l, particles 0.001 w/v %, immediately after observation light irradiation); 1.0 (Example 15, T24, ALA 2 mmol/l, particles 0.001 w/v %, immediately after observation light irradiation).
